Assay results: PubChem BioAssay AID602251 (NMMLSC, 2012)
pEC50: −log10 of the molar value. Calls of active or inactive are those of the source.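 Rule for the calls: active = fitted concentration giving half of the maximal binding block below 66 µM; inactive = the rest.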

What follows are molecules tested against anti-desmoglein 3 scFv antibody binding to human desmoglein 3 (DSG3) (assay: blockers of pemphigus antibody–desmoglein 3 interaction – biochemical, DSG3-coupled beads, scFv-GFP, flow cytometry, Cherry Pick 1, dose response (AID 602251;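 for binding response, lower = inhibition: 100% = DMSO vehicle binding and 0% = soluble DSG3 blocking control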)). Conditions: not given.

Compound	pEC50
CN1C(=CC=C2C=C(I)C(=O)C(I)=C2)C(C)(C)c2ccccc21	4.80
COc1ccccc1NC(=O)Cn1nnc(-c2ccccc2NC(=O)c2cc3ccccc3oc2=O)n1	4.59
Clc1ccc2nc(CSc3nnc(-c4c[nH]c5ccccc45)o3)cn2c1	4.60
O=C(CSc1ccc(Cl)cc1)Nc1cccc(-c2nc3ccccc3[nH]2)c1	4.23
C=CCn1c(O)c(C2=c3ccccc3=NC2=O)s/c1=N/c1nccs1	4.40
CCC(=C/c1sc2ccc3ccccc3c2[n+]1C)/C=C1\Sc2ccc3ccccc3c2N1C	4.59
CCN(CC)c1ccc(NC(=O)CCCCC(=O)Nc2ccc(N(CC)CC)cc2)cc1	4.57
CCOC(=O)Cc1csc(-n2sc3ccccc3c2=O)n1	4.82
CC1CCN(S(=O)(=O)c2ccc3c(c2)c(=O)c(C(=O)NCc2cccs2)cn3C)CC1	4.25
O=C(Nc1ccc(N2CCOCC2)cc1)c1ccc2nc(-c3ccco3)c(-c3ccco3)nc2c1	4.59
CCOc1ccc2c(ccc(/C=C/c3cc(C)c4cccnc4c3O)[n+]2C)c1	5.97
C=CCn1c(SCC(=O)N2CCN(c3ccccc3)CC2)nc2c([nH]c3ccccc32)c1=O	4.29
CCOC(=O)Cn1c(=NC(=O)c2cccs2)sc2cc(C(=O)OC)ccc21	4.58
NS(=O)(=O)c1ccc(NC(=O)c2cc(-c3cccs3)nc3ccccc23)cc1	4.76
C=CCNC(=O)c1c(N)n(-c2cccc(S(N)(=O)=O)c2)c2nc3ccccc3nc12	4.23
Cc1ccc(NC(=O)CN2C(=O)N/C(=C/c3cccn3-c3ccc(C(=O)O)cc3)C2=O)cc1	4.32
O=C(O)C1Nc2c(O)cc(Cl)c([N+](=O)[O-])c2C2C=CCC12 (stereo not given)	4.56
Cn1c(SCC(=O)NC2CCCCC2)nnc1-c1cc2cc(Cl)ccc2o1	4.68
NC(=O)c1ccsc1NC(=O)COC(=O)c1cc(=O)[nH]c2ccccc12	4.52
O=C(Nc1ccc(F)cc1)Nc1ccc([N+](=O)[O-])cn1	4.67
Nn1c(SCC(=O)Nc2cc(C(F)(F)F)ccc2Cl)nncc1=O	4.53

Same assay, conditions: at 66.1 µM (top of the series)

Compound	binding response, lower = inhibition
Cc1ccc(CSc2nnc(Nc3ccc(C)cc3)s2)cc1	inactive
CCOc1ccc(N2CSC(=S)N(c3ccc(OCC)cc3)C2)cc1	inactive
COc1ccc(-c2cn3c(C)c(C(=O)Nc4cccc(NC(C)=O)c4)sc3n2)cc1	inactive
O=C(c1cc2cc3ccc(Cl)cc3nc2o1)N1CCN(Cc2ccc3c(c2)OCO3)CC1	inactive
S=c1[nH]ncn1/N=C/c1ccccc1	inactive
Cc1nc2ccccc2nc1OCC(=O)Nc1ccc2ccccc2c1	inactive
COc1ccc(C(=O)Nc2ccc(Oc3ncnc4sc(-c5ccccc5)cc34)cc2)cc1OC	inactive
CCOc1ccc2nc(NC(=O)c3ccc(S(=O)(=O)N4CCOCC4)cc3)sc2c1	inactive
O=C(O)CCC(=O)NCCC1=c2ccccc2=N/C1=C\c1c(O)n(Cc2ccc(F)cc2)c(=S)[nH]c1=O	inactive
O=C(CSc1ccsc1[N+](=O)[O-])Nc1cc(F)ccc1F	inactive
CCOC(=O)CN1C(=O)/C(=C/c2ccccc2Br)Oc2ccccc21	inactive
COc1ccccc1NS(=O)(=O)c1cccc(NC(=O)c2cc3ccccc3oc2=O)c1	inactive
CS(=O)(=O)c1ccc2nc(NC(=O)Nc3ccccc3F)sc2c1	inactive
COc1ccc2c(c1)c(N=NC(N)=S)c(O)n2CC(=O)c1ccccc1	inactive
Nc1cc(-c2ccc(Br)cc2)nn1S(=O)(=O)c1ccccc1	inactive
Cc1cc(NC(=O)c2cc(-c3ccccn3)nc3ccc(Br)cc23)no1	inactive
Cc1c(C(=O)Nc2ccc(OCc3ccccc3)cc2)cccc1[N+](=O)[O-]	inactive
O=C(N/N=C1/C(=O)c2cccc3cccc1c23)c1ccc(Cl)cc1	inactive
COc1cccc(C(C(=O)NC2CCCCC2)N(CCN2CCOCC2)C(=O)C2COc3ccccc3O2)c1 (stereo not given)	inactive
O=[N+]([O-])c1ccc(NCCNc2ccc([N+](=O)[O-])cc2)cc1	inactive
Cc1cc(NC(=O)CSc2nnc(-c3c[nH]c4ccccc34)n2-c2ccc(F)cc2)no1	inactive
Cc1ccc2oc(-c3ccc(NC(=O)CC(C)C)cc3)nc2c1	inactive
COCCCNC(=O)c1c(N)n(-c2cccc(S(N)(=O)=O)c2)c2nc3ccccc3nc12	inactive
CCOc1ccc(N(CC(=O)NCCSCc2ccco2)S(=O)(=O)c2ccc(C)cc2)cc1	inactive
